Here are results for 15 compounds from US4837204A, “Functionalized peptidyl aminodiols and -triols” (Abbott Laboratories, priority 1988, dated 1989).

Usually IC50 stands for the concentration at which inhibition is half-maximal.

The target in the experiment is T1, human renal renin (Homo sapiens, UniProt P00797).
T1 construct: human renal renin, free from acid proteolytic activity; from tissue
T1 sequence (P00797 67-406): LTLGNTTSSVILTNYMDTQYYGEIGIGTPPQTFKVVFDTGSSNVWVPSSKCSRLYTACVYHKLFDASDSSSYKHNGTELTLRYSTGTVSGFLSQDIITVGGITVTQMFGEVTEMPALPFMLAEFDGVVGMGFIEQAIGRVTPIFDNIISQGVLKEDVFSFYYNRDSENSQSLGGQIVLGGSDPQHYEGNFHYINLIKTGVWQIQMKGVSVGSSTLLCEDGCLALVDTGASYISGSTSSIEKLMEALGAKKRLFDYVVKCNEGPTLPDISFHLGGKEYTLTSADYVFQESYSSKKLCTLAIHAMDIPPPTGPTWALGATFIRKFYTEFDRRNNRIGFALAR
Nature of the experiment: in vitro inhibition of human renal renin (angiotensin I formed measured by radioimmunoassay). Type of experiment: biochemical. The following applies: human renal renin with renin substrate (human angiotensinogen), 37° C., pH 6.0.
Take `CC(C)(CC(=O)N[C@@H](Cc1ccccc1)C(=O)N[C@@H](Cc1c[nH]cn1)C(=O)N[C@@H](CC1CCCCC1)[C@@H](O)[C@@H](O)CN=[N+]=[N-])CC(=O)OC(C)(C)C` [Example 70, (4-t-Butyloxycarbonyl-3,3-dimethyl)butanoyl-Phe-His Amide of (2S,3R,4S)-1-Azido-2,3-dihydroxy-4-amino-5-cyclohexylpentane]: inhibition was half-maximal at 1 nM (IC50). Under `COc1ccc(C[C@H](NC(=O)N2CCOCC2)C(=O)N[C@@H](Cc2c[nH]cn2)C(=O)N[C@@H](CC2CCCCC2)[C@@H](O)[C@@H](O)CN=[N+]=[N-])cc1` [Example 72, Morpholinocarbonyl (O-methyl)Tyr-His Amide of (2S,3R,4S)-1-Azido-2,3-dihydroxy-4-amino-5-cyclohexylpentane] stands 4 nM; under `COc1ccc(C[C@H](NC(=O)C(C)C)C(=O)N[C@@H](Cc2c[nH]cn2)C(=O)N[C@@H](CC2CCCCC2)[C@@H](O)[C@@H](O)CN=[N+]=[N-])cc1` [Example 47, Isobutyryl (O-methyl)Tyr-His Amide of (2S,3R,4S)-1-Azido-2,3-dihydroxy-4-amino-5-cyclohexylpentane], 2 nM; under `C[C@H](NC(=O)[C@H](Cc1ccccc1)NC(=O)OC(C)(C)C)C(=O)N[C@@H](CC1CCCCC1)[C@@H](O)[C@@H](O)CN` [Example 31, Boc-Phe-Ala Amide (4-amino) of (2S,3R,4S)-1,4-Diamino-2,3-dihydroxy-5-cyclohexylpentane], 55 nM. In turn, `CC(C)CCC(=O)NC[C@H](O)[C@H](O)[C@H](CC1CCCCC1)NC(=O)C(Cc1cc[nH]n1)NC(=O)[C@H](Cc1ccccc1)NC(=O)OC(C)(C)C` (stereo partly drawn) [Example 15, Boc-Phe-d,l-3-pyrazolylalanine Amide of (2S,3R,4S)-1-(3-Methylbutylcarbonylamino)-2,3-dihydroxy-4-amino-5-cyclohexylpentane] gave an IC50 of 6 nM. Under `CC(C)(C)OC(=O)N[C@@H](Cc1ccccc1)C(=O)N[C@@H](Cc1c[nH]cn1)C(=O)N[C@@H](CC1CCCCC1)[C@@H](O)[C@@H](O)CN=[N+]=[N-]` [Example 17, Boc-Phe-His Amide of (2S,3R,4S)-1-Azido-2,3-dihydroxy-4-amino-5-cyclohexlpentane] stands 0.4 nM; under `CCOC(=O)N[C@@H](Cc1ccccc1)C(=O)N[C@@H](CC(C)C)C(=O)N[C@@H](CC1CCCCC1)C(O)C(O)C(O)C(C)C` (single isomer, unassigned) [Example 36B], 10 nM. In the case of `CCOC(=O)N[C@@H](Cc1ccccc1)C(=O)N[C@@H](CC(C)C)C(=O)N[C@@H](CC1CCCCC1)C(O)C(O)C(O)C(C)C` (single isomer, unassigned) [Example 36A] it was 30 nM; in that of `CCOC(=O)N[C@@H](CC(C)C)C(=O)N[C@@H](CC(C)C)C(=O)N[C@@H](CC1CCCCC1)C(O)C(O)CO` (stereo partly drawn) [Example 32, Ethoxycarbonyl-Leu-Leu Amide of (2RS,3RS,4S)-Amino-5-cyclohexyl-1,2,3-trihydroxypentane], 50 nM. In the case of `COc1ccc(C[C@H](NC(=O)N(C)C)C(=O)N[C@@H](Cc2c[nH]cn2)C(=O)N[C@@H](CC2CCCCC2)[C@@H](O)[C@@H](O)CN=[N+]=[N-])cc1` [Example 69, Dimethylaminocarbonyl (O-methyl)Tyr-His Amide of (2S,3R,4S)-1-Azido-2,3-dihydroxy-4-amino-5-cyclohexylpentane] it was 10 nM; in that of `CC(C)CS(=O)(=O)NC[C@H](O)[C@H](O)[C@H](CC1CCCCC1)NC(=O)[C@H](Cc1c[nH]cn1)NC(=O)[C@H](Cc1ccccc1)NC(=O)OC(C)(C)C` [Example 16, Boc-Phe-His Amide of (2S,3R,4S)-1-(Isobutylsulfonylamino)-2,3-dihydroxy-4-amino-5-cyclohexylpentane], 10 nM; in that of `COc1ccc(C[C@H](NC(=O)OC(C)(C)C)C(=O)N[C@@H](Cc2c[nH]cn2)C(=O)N[C@@H](CC2CCCCC2)[C@@H](O)[C@@H](O)CN=[N+]=[N-])cc1` [Example 19, Boc-(O-methyl)Tyr-His Amide of (2S,3R,4S)-1-Azido-2,3-dihydroxy-4-amino-5-cyclohexylpentane], 0.65 nM. With `C[C@H](NC(=O)[C@H](Cc1ccccc1)NC(=O)OC(C)(C)C)C(=O)N[C@@H](CC1CCCCC1)[C@@H](O)[C@@H](O)CN=[N+]=[N-]` [Example 20, Boc-Phe-Ala-OH Amide of (2S,3R,4S)-1-Azido-2,3-dihydroxy-4-amino-5-cyclohexylpentane], the IC50 was 10 nM.

Turning to `CC(C)C(=O)N[C@H](C(=O)N[C@@H](Cc1c[nH]cn1)C(=O)N[C@@H](CC1CCCCC1)[C@@H](O)[C@@H](O)CN=[N+]=[N-])[C@@H](C)OCc1ccccc1` [Example 52, Isobutyryl (O-benzyl)Thr-His Amide of (2S,3R,4S)-1-Azido-2,3-dihydroxy-4-amino-5-cyclohexylpentane], inhibition was half-maximal at 4 nM (IC50). In turn, `CC(C)CCC(=O)NC[C@H](O)[C@H](O)[C@H](CC1CCCCC1)NC(=O)[C@H](Cc1c[nH]cn1)NC(=O)[C@H](Cc1ccccc1)NC(=O)OC(C)(C)C` [Example 14, Boc-Phe-His Amide of (2S,3R,4S)-1-(3-Methylbutylcarbonylamino)-2,3-dihydroxy-4-amino-5-cyclohexylpentane] gave an IC50 of 4 nM.
